According to the NIST ThermoML archive (doi:10.1021/je500395f):

Conditions: Fluid (supercritical or subcritical phases), Coaxial cylinder method

CCC [propane]
Conditions	thermal conductivity [W/m/K]
370.45 K, 3452 kPa	0.03558
370.45 K, 3487 kPa	0.0359
370.45 K, 3770 kPa	0.03805
370.45 K, 3856 kPa	0.03938
370.45 K, 3986 kPa	0.04204
370.45 K, 4042 kPa	0.04385
370.45 K, 4105 kPa	0.04623
370.45 K, 4170 kPa	0.05102
370.45 K, 4190 kPa	0.05329
370.45 K, 4200 kPa	0.055
370.45 K, 4205 kPa	0.05577
370.45 K, 4217 kPa	0.05902
370.45 K, 4224 kPa	0.06133
370.45 K, 4227 kPa	0.06249
370.45 K, 4232 kPa	0.06383
370.45 K, 4241 kPa	0.06723
370.45 K, 4244 kPa	0.06856
370.45 K, 4245 kPa	0.06879
370.45 K, 4250 kPa	0.07121
370.45 K, 4255 kPa	0.0743
370.45 K, 4260 kPa	0.0774
370.45 K, 4265 kPa	0.08106
370.45 K, 4270 kPa	0.08804
370.45 K, 4275 kPa	0.09622
370.45 K, 4280 kPa	0.1118
370.45 K, 4285 kPa	0.1252
370.45 K, 4290 kPa	0.1423
370.45 K, 4295 kPa	0.156
370.45 K, 4300 kPa	0.1452
370.45 K, 4305 kPa	0.1291
370.45 K, 4310 kPa	0.1181
370.45 K, 4315 kPa	0.1061
370.45 K, 4320 kPa	0.101
370.45 K, 4325 kPa	0.09628
370.45 K, 4330 kPa	0.09201
370.45 K, 4335 kPa	0.08809
370.45 K, 4340 kPa	0.08122
370.45 K, 4345 kPa	0.07814
370.45 K, 4350 kPa	0.07669
370.45 K, 4355 kPa	0.07528
370.45 K, 4360 kPa	0.07393
370.45 K, 4377 kPa	0.07217
370.45 K, 4400 kPa	0.07099
370.45 K, 4420 kPa	0.07014
370.45 K, 4560 kPa	0.06814
370.45 K, 4580 kPa	0.06769
370.45 K, 4800 kPa	0.06654
370.45 K, 5000 kPa	0.06717
370.45 K, 5500 kPa	0.06784
370.45 K, 5550 kPa	0.06791
370.45 K, 5760 kPa	0.06812
370.45 K, 6000 kPa	0.06874
370.45 K, 6500 kPa	0.06997
370.45 K, 7000 kPa	0.07091
370.45 K, 7500 kPa	0.07178
370.45 K, 8000 kPa	0.07277
370.45 K, 8500 kPa	0.07381
370.45 K, 9000 kPa	0.07421
370.45 K, 9500 kPa	0.07545
370.45 K, 10000 kPa	0.07572
370.45 K, 10500 kPa	0.07624
370.45 K, 11000 kPa	0.07677
370.45 K, 11200 kPa	0.07735
370.45 K, 11300 kPa	0.07645
370.45 K, 15100 kPa	0.08094
371.05 K, 2710 kPa	0.03205
371.05 K, 3100 kPa	0.03344
371.05 K, 3375 kPa	0.03463
371.05 K, 3655 kPa	0.03745
371.05 K, 3900 kPa	0.04056
371.05 K, 4095 kPa	0.04417
371.05 K, 4155 kPa	0.04633
371.05 K, 4215 kPa	0.04915
371.05 K, 4235 kPa	0.0519
371.05 K, 4252 kPa	0.05394
371.05 K, 4265 kPa	0.05669
371.05 K, 4276 kPa	0.05854
371.05 K, 4284 kPa	0.06121
371.05 K, 4289 kPa	0.06357
371.05 K, 4295 kPa	0.06602
371.05 K, 4301 kPa	0.06867
371.05 K, 4308 kPa	0.07332
371.05 K, 4313 kPa	0.07659
371.05 K, 4318 kPa	0.08141
371.05 K, 4319 kPa	0.08406
371.05 K, 4322 kPa	0.08836
371.05 K, 4324 kPa	0.09107
371.05 K, 4325 kPa	0.09395
371.05 K, 4326 kPa	0.09568
371.05 K, 4328 kPa	0.09934
371.05 K, 4329 kPa	0.1013
371.05 K, 4331 kPa	0.1054
371.05 K, 4332 kPa	0.1075
371.05 K, 4334 kPa	0.1104
371.05 K, 4336 kPa	0.114
371.05 K, 4337 kPa	0.1159
371.05 K, 4338 kPa	0.1172
371.05 K, 4339 kPa	0.1178
371.05 K, 4340 kPa	0.1185
371.05 K, 4342 kPa	0.1192
371.05 K, 4343 kPa	0.1192
371.05 K, 4344 kPa	0.1192
371.05 K, 4345 kPa	0.1185
371.05 K, 4346 kPa	0.1178
371.05 K, 4347 kPa	0.1159
371.05 K, 4349 kPa	0.1121
371.05 K, 4351 kPa	0.1081
371.05 K, 4354 kPa	0.1028
371.05 K, 4356 kPa	0.09934
371.05 K, 4358 kPa	0.09657
371.05 K, 4360 kPa	0.09395
371.05 K, 4361 kPa	0.09311
371.05 K, 4365 kPa	0.08989
371.05 K, 4367 kPa	0.08836
371.05 K, 4370 kPa	0.08616
371.05 K, 4375 kPa	0.08406
371.05 K, 4383 kPa	0.08141
371.05 K, 4387 kPa	0.08015
371.05 K, 4392 kPa	0.07865
371.05 K, 4396 kPa	0.07776
371.05 K, 4402 kPa	0.07633
371.05 K, 4408 kPa	0.07494
371.05 K, 4414 kPa	0.07363
371.05 K, 4420 kPa	0.07231
371.05 K, 4440 kPa	0.07105
371.05 K, 4485 kPa	0.06921
371.05 K, 4555 kPa	0.06855
371.05 K, 4560 kPa	0.06824
371.05 K, 4590 kPa	0.06782
371.05 K, 4715 kPa	0.06718
371.05 K, 4720 kPa	0.06705
371.05 K, 4840 kPa	0.06668
371.05 K, 5000 kPa	0.06707
371.05 K, 5200 kPa	0.06747
371.05 K, 5350 kPa	0.06773
371.05 K, 5672 kPa	0.06829
371.05 K, 6100 kPa	0.06917
371.05 K, 6200 kPa	0.06927
371.05 K, 6800 kPa	0.06996
371.05 K, 7500 kPa	0.07147
371.05 K, 8500 kPa	0.07339
371.05 K, 8900 kPa	0.07424
371.05 K, 9500 kPa	0.07498
371.05 K, 11600 kPa	0.07756
371.97 K, 3025 kPa	0.03301
371.97 K, 3070 kPa	0.03313
371.97 K, 3701 kPa	0.03655
371.97 K, 3803 kPa	0.03783
371.97 K, 4286 kPa	0.04983
371.97 K, 4294 kPa	0.05055
371.97 K, 4312 kPa	0.05267
371.97 K, 4324 kPa	0.05459
371.97 K, 4336 kPa	0.05724
371.97 K, 4342 kPa	0.05915
371.97 K, 4348 kPa	0.06124
371.97 K, 4354 kPa	0.06361
371.97 K, 4362 kPa	0.0676
371.97 K, 4366 kPa	0.07025
371.97 K, 4368 kPa	0.07149
371.97 K, 4370 kPa	0.07274
371.97 K, 4374 kPa	0.07488
371.97 K, 4378 kPa	0.07749
371.97 K, 4380 kPa	0.07923
371.97 K, 4382 kPa	0.07986
371.97 K, 4384 kPa	0.08174
371.97 K, 4386 kPa	0.08308
371.97 K, 4388 kPa	0.08481
371.97 K, 4390 kPa	0.08662
371.97 K, 4392 kPa	0.08774
371.97 K, 4394 kPa	0.08968
371.97 K, 4396 kPa	0.09177
371.97 K, 4398 kPa	0.09312
371.97 K, 4400 kPa	0.09429
371.97 K, 4402 kPa	0.09604
371.97 K, 4404 kPa	0.09739
371.97 K, 4406 kPa	0.09807
371.97 K, 4408 kPa	0.09854
371.97 K, 4410 kPa	0.09918
371.97 K, 4412 kPa	0.09961
371.97 K, 4414 kPa	0.09999
371.97 K, 4416 kPa	0.1001
371.97 K, 4418 kPa	0.1001
371.97 K, 4420 kPa	0.09965
371.97 K, 4425 kPa	0.09676
371.97 K, 4430 kPa	0.09369
371.97 K, 4435 kPa	0.09161
371.97 K, 4440 kPa	0.08782
371.97 K, 4445 kPa	0.08423
371.97 K, 4450 kPa	0.08092
371.97 K, 4455 kPa	0.07787
371.97 K, 4460 kPa	0.07642
371.97 K, 4465 kPa	0.07505
371.97 K, 4475 kPa	0.07322
371.97 K, 4490 kPa	0.07226
371.97 K, 4500 kPa	0.07021
371.97 K, 4505 kPa	0.06997
371.97 K, 4530 kPa	0.06877
371.97 K, 4550 kPa	0.06759
371.97 K, 4570 kPa	0.06665
371.97 K, 4650 kPa	0.06636
371.97 K, 4740 kPa	0.06618
371.97 K, 4850 kPa	0.06602
371.97 K, 5200 kPa	0.06643
371.97 K, 5900 kPa	0.06801
371.97 K, 6400 kPa	0.06923
371.97 K, 6800 kPa	0.07002
371.97 K, 7600 kPa	0.07152
371.97 K, 8810 kPa	0.07269
371.97 K, 15100 kPa	0.08067
373.2 K, 3103 kPa	0.03319
373.2 K, 3450 kPa	0.03488
373.2 K, 3780 kPa	0.03746
373.2 K, 3820 kPa	0.03788
373.2 K, 4030 kPa	0.04085
373.2 K, 4060 kPa	0.04149
373.2 K, 4150 kPa	0.04361
373.2 K, 4230 kPa	0.04611
373.2 K, 4270 kPa	0.04756
373.2 K, 4346 kPa	0.05156
373.2 K, 4384 kPa	0.05498
373.2 K, 4404 kPa	0.05788
373.2 K, 4416 kPa	0.05996
373.2 K, 4428 kPa	0.0626
373.2 K, 4436 kPa	0.06499
373.2 K, 4444 kPa	0.06754
373.2 K, 4450 kPa	0.06964
373.2 K, 4452 kPa	0.07037
373.2 K, 4462 kPa	0.07388
373.2 K, 4466 kPa	0.07545
373.2 K, 4470 kPa	0.07719
373.2 K, 4476 kPa	0.07958
373.2 K, 4482 kPa	0.08175
373.2 K, 4484 kPa	0.0824
373.2 K, 4486 kPa	0.08306
373.2 K, 4494 kPa	0.08512
373.2 K, 4496 kPa	0.08547
373.2 K, 4498 kPa	0.08584
373.2 K, 4500 kPa	0.0862
373.2 K, 4502 kPa	0.08638
373.2 K, 4504 kPa	0.08656
373.2 K, 4506 kPa	0.08685
373.2 K, 4508 kPa	0.08693
373.2 K, 4510 kPa	0.0873
373.2 K, 4518 kPa	0.08768
373.2 K, 4524 kPa	0.08658
373.2 K, 4530 kPa	0.08552
373.2 K, 4536 kPa	0.08417
373.2 K, 4544 kPa	0.08185
373.2 K, 4550 kPa	0.07994
373.2 K, 4556 kPa	0.07815
373.2 K, 4564 kPa	0.07643
373.2 K, 4568 kPa	0.07532
